Laboratory results reported in PubChem BioAssay AID256 (DTP/NCI, 2004).
Where “and” joins values, the source holds several entries; their conditions need not be identical. Equal entries are not always repeated. Toxic doses and inconclusive results are not listed. The calls were made as follows: active = survival T/C of 150% or more; inactive = T/C below 125% in these data.

Tested on: CD2F1 mice, L1210 leukemia ip, survival T/C
Experiment: NCI In Vivo Anticancer Drug Screen. Data for tumor model L1210 Leukemia (intraperitoneal) in CD2F1 (CDF1) mice
Conditions: endpoint: mean survival time, higher = longer survival
Method in brief: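 Transplantable tumor in mice; compound-treated vs vehicle-treated groups. Read-out = treated/control ratio of the measured endpoint.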

[1] = dose: 100.0 mg/kg/injection, schedule: Q01DX009 (ip), vehicle: saline with Tween-80
[2] = dose: 200.0 mg/kg/injection, schedule: Q01DX009 (ip), vehicle: saline with Tween-80
[3] = dose: 400.0 mg/kg/injection, schedule: Q01DX009 (ip), vehicle: saline with Tween-80
[4] = dose: 100.0 mg/kg/injection, schedule: Q04DX003 (ip), vehicle: saline with Tween-80
[5] = dose: 200.0 mg/kg/injection, schedule: Q04DX003 (ip), vehicle: saline with Tween-80
[6] = dose: 400.0 mg/kg/injection, schedule: Q04DX003 (ip), vehicle: saline with Tween-80
[7] = dose: 100.0 mg/kg/injection, schedule: Q04DX003 (ip), vehicle: saline
[8] = dose: 200.0 mg/kg/injection, schedule: Q04DX003 (ip), vehicle: saline
[9] = dose: 400.0 mg/kg/injection, schedule: Q04DX003 (ip), vehicle: saline
[10] = dose: 100.0 mg/kg/injection, schedule: Q01DX001 (ip), vehicle: saline with Tween-80
[11] = dose: 200.0 mg/kg/injection, schedule: Q01DX001 (ip), vehicle: saline with Tween-80
[12] = dose: 400.0 mg/kg/injection, schedule: Q01DX001 (ip), vehicle: saline with Tween-80
[13] = dose: 50.0 mg/kg/injection, schedule: Q04DX002 (ip), vehicle: saline with Tween-80

Measured: T/C

CC(C)CCOC(=S)S.[Pt]
inactive: dose: 9.37 mg/kg/injection, schedule: Q04DX003 (ip), vehicle: saline with Tween-80 112 % of control | dose: 18.75 mg/kg/injection, schedule: Q04DX003 (ip), vehicle: saline with Tween-80 96 % of control | dose: 37.5 mg/kg/injection, schedule: Q04DX003 (ip), vehicle: saline with Tween-80 96 % of control | dose: 75.0 mg/kg/injection, schedule: Q04DX003 (ip), vehicle: saline with Tween-80 104 % of control | dose: 150.0 mg/kg/injection, schedule: Q04DX003 (ip), vehicle: saline with Tween-80 96 % of control

COC(=O)C1(C(=O)OC)C2C(=O)C3C(C21)C3(C(=O)OC(C)(C)C)C(=O)OC(C)(C)C (stereo not given)
inactive: [1] 96 % of control | [2] 94 % of control | [3] 93 % of control

Cc1cccc(C)c1NC(=O)c1cccc(Cl)c1
inactive: [1] 94 % of control | [4] 98 % of control | [2] 98 % of control | [5] 96 % of control | [3] 94 % of control | [6] 98 % of control

COC(=O)c1cncc(C(=O)OC)c1
inactive: [1] 94 % of control | [2] 92 % of control | [3] 90 % of control

O=C1CC2C3C=CC(C12)C1C(=O)OC(=O)C31 (stereo not given)
inactive: [7] 107 % of control | [8] 98 % of control | [9] 91 % of control

C1CC2N=NC1C21CC1.[Cl][Cu][Cl]
inactive: dose: 6.25 mg/kg/injection, schedule: Q04DX002 (ip), vehicle: saline with Tween-80 96 % of control | dose: 12.5 mg/kg/injection, schedule: Q04DX002 (ip), vehicle: saline with Tween-80 108 % of control

COC(=O)Cc1cc(O)c(C(=O)OC)c(O)c1C(=O)OC
inactive: [10] 103 % of control | [11] 98 % of control | [12] 98 % of control

CSc1ccc(C2=CCCCC2)cc1
inactive: [7] 91 % of control | [8] 91 % of control | [9] 96 % of control

O=[N+]([O-])c1cc(-c2nnc(-c3ccc(Cl)c([N+](=O)[O-])c3)o2)ccc1Cl
inactive: [13] 100 % of control | dose: 100.0 mg/kg/injection, schedule: Q04DX002 (ip), vehicle: saline with Tween-80 100 % of control | dose: 200.0 mg/kg/injection, schedule: Q04DX002 (ip), vehicle: saline with Tween-80 96 % of control | dose: 400.0 mg/kg/injection, schedule: Q04DX002 (ip), vehicle: saline with Tween-80 100 % of control

COc1cc(CC#N)ccc1OCc1ccccc1
inactive: dose: 12.5 mg/kg/injection, schedule: Q01DX009 (ip), vehicle: other 102 % of control | dose: 25.0 mg/kg/injection, schedule: Q01DX009 (ip), vehicle: other 101 % of control | dose: 25.0 mg/kg/injection, schedule: Q04DX003 (ip), vehicle: other 102 % of control | dose: 50.0 mg/kg/injection, schedule: Q01DX009 (ip), vehicle: other 100 % of control | dose: 50.0 mg/kg/injection, schedule: Q04DX003 (ip), vehicle: other 96 % of control | dose: 100.0 mg/kg/injection, schedule: Q04DX003 (ip), vehicle: other 103 % of control

FC(F)(F)Cc1ccccc1
inactive: [10] 103 % of control | [11] 108 % of control | [12] 105 % of control

O=C(O)c1cccnc1F
inactive: [4] 94 % of control | [5] 98 % of control | [6] 96 % of control

NC(=O)c1cc2c3ccccc3ncc2c2ccccc12
inactive: [4] 101 % of control | [5] 97 % of control | [6] 94 % of control

O=C(O)/C(=C\c1ccc(Br)cc1)c1ccc(C(F)(F)F)cc1[N+](=O)[O-]
inactive: dose: 75.0 mg/kg/injection, schedule: Q04DX003 (ip), vehicle: saline 89 % of control | dose: 150.0 mg/kg/injection, schedule: Q04DX003 (ip), vehicle: saline 101 % of control | dose: 300.0 mg/kg/injection, schedule: Q04DX003 (ip), vehicle: saline 100 % of control

COc1ccc2c(c1O)-c1c(OC)c(OC)cc3c1C(C2)N(C)CC3 (stereo not given)
inactive: [10] 97 % of control | [11] 97 % of control | [12] 108 % of control

NN(C(=O)c1ccccc1)c1ccccc1
inactive: [1] 98 % of control | [4] 95 % of control | [5] 97 % of control | [6] 100 % of control

Cc1ccc([I+]c2ccc(C)cc2)cc1
inactive: dose: 0.25 mg/kg/injection, schedule: Q01DX009 (ip), vehicle: Klucel (hydroxypropylcellulose) (HPC) 98 % of control | dose: 0.5 mg/kg/injection, schedule: Q01DX009 (ip), vehicle: Klucel (hydroxypropylcellulose) (HPC) 98 % of control | dose: 1.0 mg/kg/injection, schedule: Q01DX009 (ip), vehicle: Klucel (hydroxypropylcellulose) (HPC) 105 % of control

CO[C@@]12[C@@H]3N[C@@H]3CN1C1=C(C(=O)C(Nc3nc(C)cs3)=C(C)C1=O)[C@@H]2COC(N)=O
inactive: dose: 1.5 mg/kg/injection, schedule: Q01DX001 (ip), vehicle: water 116 % of control and 112 % of control | dose: 3.0 mg/kg/injection, schedule: Q01DX001 (ip), vehicle: water 115 % of control | dose: 6.0 mg/kg/injection, schedule: Q01DX001 (ip), vehicle: water 121 % of control

CC(C)C(Nc1sc([N+](=O)[O-])cc1[N+](=O)[O-])C(=O)O (stereo not given)
inactive: [10] 90 % of control | [11] 102 % of control | [12] 107 % of control

CSc1ccc(SC)nn1
inactive: [1] 102 % of control | [2] 96 % of control | [3] 91 % of control

O=[N+]([O-])c1ccc(Cc2ncnc3c2ncn3C2OC(CO)C(O)C2O)cc1 (stereo not given)
inactive: dose: 12.5 mg/kg/injection, schedule: Q01DX005 (ip), vehicle: distilled water + Tween-80 103 % of control | dose: 25.0 mg/kg/injection, schedule: Q01DX005 (ip), vehicle: distilled water + Tween-80 105 % of control | dose: 50.0 mg/kg/injection, schedule: Q01DX005 (ip), vehicle: distilled water + Tween-80 108 % of control | dose: 100.0 mg/kg/injection, schedule: Q01DX005 (ip), vehicle: distilled water + Tween-80 120 % of control | dose: 200.0 mg/kg/injection, schedule: Q01DX005 (ip), vehicle: distilled water + Tween-80 120 % of control

[Cl][Pt+2][Cl].[NH-]CC(=O)O.[NH-]CC(=O)O
inactive: dose: 12.5 mg/kg/injection, schedule: Q01DX009 (ip), vehicle: saline 96 % of control | dose: 25.0 mg/kg/injection, schedule: Q01DX009 (ip), vehicle: saline 101 % of control | dose: 50.0 mg/kg/injection, schedule: Q01DX009 (ip), vehicle: saline 108 % of control | dose: 100.0 mg/kg/injection, schedule: Q01DX009 (ip), vehicle: saline 98 % of control | dose: 200.0 mg/kg/injection, schedule: Q01DX009 (ip), vehicle: saline 96 % of control

c1ccc2c(c1)Cc1nc3ccccc3nc1-2
inactive: [1] 94 % of control | [4] 105 % of control | [2] 94 % of control | [5] 103 % of control | [3] 97 % of control | [6] 97 % of control

CCOC(=O)CCN(C)C
inactive: [7] 97 % of control | [8] 100 % of control | [9] 100 % of control

COCCCNC1=C(C#N)C(=O)NC(c2cccc([N+](=O)[O-])c2)S1 (stereo not given)
inactive: dose: 12.5 mg/kg/injection, schedule: Q01DX009 (ip), vehicle: saline with Tween-80 94 % of control | dose: 25.0 mg/kg/injection, schedule: Q01DX009 (ip), vehicle: saline with Tween-80 96 % of control | dose: 50.0 mg/kg/injection, schedule: Q01DX009 (ip), vehicle: saline with Tween-80 96 % of control | [1] 100 % of control | [2] 102 % of control | [3] 103 % of control

CCCC[PH+](CCCC)CCCC.CCCC[PH+](CCCC)CCCC.O=[N+]([O-])O.O=[N+]([O-])O.[Ni]
inactive: [13] 92 % of control
